Source: PMC8379256, “A xanthene derivative, DS20060511, attenuates glucose intolerance by inducing skeletal muscle-specific GLUT4 translocation in mice” (Communications Biology, 2021)
“And” between values parts separate entries of the source, which are not always exact repeats. Identical values can stand only once.

Tested on: C57BL/6 mice
Assay: Indirect calorimetry and exercise endurance under stepwise treadmill running
Assay type: in vivo, mouse
Details: for Fat oxodation, sum over interval / Gluocse oxdation, sum over interval / Fat oxodation / Gluocse oxdation: individual mice 1-7
Method: The mice were acclimatized to the treadmill by allowing them to run at 10 m min^−1 for 10 min on the day before the test. On the day of the test, the mice received oral administration of 30 mg kg^−1 of DS20060511 or vehicle 15 min before they were made to run. The treadmill was started at a velocity of 10 m min^−1, with the speed increased stepwise by 2 m min^−1 every 3 min, to assess the exercise endurance capacity as described previously. Measurements of the oxygen consumption (VO2) and exhaled carbon dioxide (VCO2) under treadmill running were conducted with the ARCO-2000 magnetic-type mass spectrometric calorimeter (ARCO System, Kashiwa, Japan) connected to the treadmill chamber (MB-2000, ARCO System). The RER was calculated as the VCO2/VO2 ratio and the substrate utilization rates were calculated using Frayn’s formula[51]: rate of glucose oxidation = 4.585VCO2 − 3.226VO2; rate of fat oxidation = 1.695VO2 − 1.701VCO2. The exercise endurance capacity under treadmill running was determined by measuring the time from the start to the time until the mice ceased to run because of exhaustion, which was defined as remaining on the shocker plate for more than 10 sec. Immediately after the exercise, the blood glucose and lactate levels were measured using Glutest Every and Lactate Pro2 (ARKRAY, Kyoto, Japan), respectively, in blood samples collected from the tail vein.

[1] = 30 mg kg−1 po vs vehicle, treadmill running
[2] = DS20060511 30 mg/kg, 2 min, individual mice 1-7, Fig. 5a, 30 mg/kg

For `COc1ccc2c(C)c(C(=O)O)ccc2c1C1C2=C(CC(C)(C)CC2=O)OC2=C1C(=O)CC(C)(C)C2` [DS20060511], the “blood lactate levels after exercise” value (30 mg kg−1 po vs vehicle) was “comparable between the two groups”, the exercise endurance capacity (30 mg kg−1 po vs vehicle, stepwise treadmill) was “comparable between the two groups” and the estimated glucose oxidation [1] was “significantly higher”. For the same compound, the fat oxidation [1] was “significantly lower”, the “respiratory exchange ratio (RER)” value [1] was “relatively higher” and the “blood glucose levels after exercise” value (30 mg kg−1 po, after treadmill running) was “decreased significantly after exercise”. The “Fat oxodation, sum over interval” value (30 mg/kg, 0-10 min) was 427.8 mg/min/kg and 293.6 mg/min/kg and 420.7 mg/min/kg and 305.9 mg/min/kg and 318.6 mg/min/kg and 347.3 mg/min/kg and 349.7 mg/min/kg, the “Gluocse oxdation, sum over interval” value (30 mg/kg, 0-10 min) was 257.7 mg/min/kg and 558.0 mg/min/kg and 414.2 mg/min/kg and 313.5 mg/min/kg and 385.3 mg/min/kg and 424.4 mg/min/kg and 413.9 mg/min/kg and the “Fat oxodation, sum over interval” value (30 mg/kg, 10-20 min) was 395.5 mg/min/kg and 242.6 mg/min/kg and 385.0 mg/min/kg and 272.2 mg/min/kg and 293.7 mg/min/kg and 348.5 mg/min/kg and 252.4 mg/min/kg. For the same compound, the “Gluocse oxdation, sum over interval” value (30 mg/kg, 10-20 min) was 391.9 mg/min/kg and 729.7 mg/min/kg and 425.7 mg/min/kg and 359.9 mg/min/kg and 949.6 mg/min/kg and 631.1 mg/min/kg and 663.2 mg/min/kg, the “Fat oxodation, sum over interval” value (30 mg/kg, 20-30 min) was 322.9 mg/min/kg and 234.0 mg/min/kg and 346.7 mg/min/kg and 272.4 mg/min/kg and 262.3 mg/min/kg and 313.5 mg/min/kg and 371.5 mg/min/kg and the “Gluocse oxdation, sum over interval” value (30 mg/kg, 20-30 min) was 572.7 mg/min/kg and 770.3 mg/min/kg and 804.1 mg/min/kg and 468.4 mg/min/kg and 807.5 mg/min/kg and 860.4 mg/min/kg and 944.3 mg/min/kg. The Fat oxodation (30 mg/kg, 2 min) was 49.1 mg/min/kg and 32.5 mg/min/kg and 45.5 mg/min/kg and 29.3 mg/min/kg and 25.5 mg/min/kg and 31.7 mg/min/kg and 38.3 mg/min/kg, the Gluocse oxdation (30 mg/kg, 2 min) was 22.8 mg/min/kg and 54.5 mg/min/kg and 47.8 mg/min/kg and 35.8 mg/min/kg and 26.2 mg/min/kg and 31.5 mg/min/kg and 33.5 mg/min/kg and the Fat oxodation (30 mg/kg, 3 min) was 47.1 mg/min/kg and 30.9 mg/min/kg and 42.8 mg/min/kg and 30.0 mg/min/kg (2×) and 34.1 mg/min/kg and 36.3 mg/min/kg. For the same compound, the Gluocse oxdation (30 mg/kg, 3 min) was 23.3 mg/min/kg and 55.7 mg/min/kg and 37.4 mg/min/kg and 36.0 mg/min/kg and 29.4 mg/min/kg and 34.4 mg/min/kg and 37.0 mg/min/kg, the Fat oxodation (30 mg/kg, 4 min) was 45.2 mg/min/kg and 28.8 mg/min/kg and 42.6 mg/min/kg and 34.0 mg/min/kg and 60.9 mg/min/kg and 33.7 mg/min/kg and 35.2 mg/min/kg and the Gluocse oxdation (30 mg/kg, 4 min) was 24.4 mg/min/kg and 56.1 mg/min/kg and 36.3 mg/min/kg and 34.1 mg/min/kg and 30.0 mg/min/kg and 35.7 mg/min/kg and 43.6 mg/min/kg. The Fat oxodation (30 mg/kg, 5 min) was 42.0 mg/min/kg (2×) and 29.8 mg/min/kg and 30.0 mg/min/kg and 28.6 mg/min/kg and 36.6 mg/min/kg and 31.5 mg/min/kg, the Gluocse oxdation (30 mg/kg, 5 min) was 25.9 mg/min/kg and 58.5 mg/min/kg and 35.2 mg/min/kg and 29.7 mg/min/kg and 36.7 mg/min/kg and 43.4 mg/min/kg and 40.9 mg/min/kg and the Fat oxodation (30 mg/kg, 6 min) was 40.6 mg/min/kg and 28.1 mg/min/kg (2×) and 39.9 mg/min/kg and 29.8 mg/min/kg and 36.7 mg/min/kg and 34.9 mg/min/kg. The Gluocse oxdation (30 mg/kg, 6 min) was 27.6 mg/min/kg and 62.3 mg/min/kg and 41.7 mg/min/kg and 27.0 mg/min/kg and 29.5 mg/min/kg and 41.2 mg/min/kg and 41.6 mg/min/kg, the Fat oxodation (30 mg/kg, 7 min) was 44.6 mg/min/kg and 27.7 mg/min/kg and 40.8 mg/min/kg and 31.0 mg/min/kg and 29.7 mg/min/kg and 36.4 mg/min/kg and 33.0 mg/min/kg and the Gluocse oxdation (30 mg/kg, 7 min) was 25.8 mg/min/kg and 57.6 mg/min/kg and 41.7 mg/min/kg and 27.6 mg/min/kg and 31.8 mg/min/kg and 41.2 mg/min/kg and 41.5 mg/min/kg. The Fat oxodation (30 mg/kg, 8 min) was 40.5 mg/min/kg and 29.5 mg/min/kg and 42.0 mg/min/kg and 36.5 mg/min/kg and 31.2 mg/min/kg and 35.1 mg/min/kg and 53.1 mg/min/kg, the Gluocse oxdation (30 mg/kg, 8 min) was 25.7 mg/min/kg and 46.1 mg/min/kg and 38.7 mg/min/kg and 30.3 mg/min/kg and 43.2 mg/min/kg and 42.8 mg/min/kg and 44.9 mg/min/kg and the Fat oxodation (30 mg/kg, 9 min) was 38.5 mg/min/kg (2×) and 26.8 mg/min/kg and 37.4 mg/min/kg and 31.8 mg/min/kg and 32.4 mg/min/kg and 27.0 mg/min/kg. For the same compound, the Gluocse oxdation (30 mg/kg, 9 min) was 33.9 mg/min/kg and 53.4 mg/min/kg and 38.5 mg/min/kg and 22.6 mg/min/kg and 54.7 mg/min/kg and 55.4 mg/min/kg and 48.5 mg/min/kg, the Fat oxodation (30 mg/kg, 10 min) was 34.8 mg/min/kg and 27.2 mg/min/kg and 41.0 mg/min/kg and 29.8 mg/min/kg and 30.4 mg/min/kg and 34.2 mg/min/kg and 23.3 mg/min/kg and the Gluocse oxdation (30 mg/kg, 10 min) was 30.0 mg/min/kg and 56.7 mg/min/kg and 39.2 mg/min/kg and 35.9 mg/min/kg and 69.2 mg/min/kg and 58.5 mg/min/kg and 43.5 mg/min/kg. For the same compound, the Fat oxodation (30 mg/kg, 11 min) was 31.8 mg/min/kg and 26.7 mg/min/kg and 43.5 mg/min/kg and 30.9 mg/min/kg and 23.0 mg/min/kg and 34.9 mg/min/kg and 24.3 mg/min/kg, the Gluocse oxdation (30 mg/kg, 11 min) was 26.2 mg/min/kg and 54.7 mg/min/kg and 51.9 mg/min/kg and 29.4 mg/min/kg and 70.2 mg/min/kg and 68.8 mg/min/kg and 48.6 mg/min/kg and the Fat oxodation (30 mg/kg, 12 min) was 38.6 mg/min/kg and 27.7 mg/min/kg and 39.9 mg/min/kg and 32.1 mg/min/kg and 28.8 mg/min/kg and 35.4 mg/min/kg and 26.2 mg/min/kg. The Gluocse oxdation (30 mg/kg, 12 min) was 31.9 mg/min/kg and 64.6 mg/min/kg and 37.7 mg/min/kg and 26.9 mg/min/kg and 70.4 mg/min/kg and 57.6 mg/min/kg and 47.4 mg/min/kg, the Fat oxodation (30 mg/kg, 13 min) was 43.1 mg/min/kg and 20.9 mg/min/kg and 41.6 mg/min/kg and 25.9 mg/min/kg and 29.8 mg/min/kg and 35.1 mg/min/kg and 26.2 mg/min/kg and the Gluocse oxdation (30 mg/kg, 13 min) was 26.0 mg/min/kg and 67.8 mg/min/kg and 36.1 mg/min/kg and 27.0 mg/min/kg and 75.8 mg/min/kg and 55.4 mg/min/kg and 71.1 mg/min/kg. The Fat oxodation (30 mg/kg, 14 min) was 40.8 mg/min/kg and 24.1 mg/min/kg and 37.9 mg/min/kg and 28.8 mg/min/kg and 31.7 mg/min/kg and 36.1 mg/min/kg and 24.4 mg/min/kg, the Gluocse oxdation (30 mg/kg, 14 min) was 35.1 mg/min/kg and 58.5 mg/min/kg and 33.2 mg/min/kg and 25.3 mg/min/kg and 81.8 mg/min/kg and 57.9 mg/min/kg and 62.6 mg/min/kg and the Fat oxodation (30 mg/kg, 15 min) was 37.9 mg/min/kg and 23.3 mg/min/kg and 38.6 mg/min/kg and 27.4 mg/min/kg and 30.7 mg/min/kg and 40.7 mg/min/kg and 24.3 mg/min/kg. For the same compound, the Gluocse oxdation (30 mg/kg, 15 min) was 36.9 mg/min/kg and 60.6 mg/min/kg and 34.7 mg/min/kg and 16.1 mg/min/kg and 95.7 mg/min/kg and 52.2 mg/min/kg and 66.3 mg/min/kg, the Fat oxodation (30 mg/kg, 16 min) was 43.4 mg/min/kg and 24.7 mg/min/kg and the Gluocse oxdation (30 mg/kg, 16 min) was 35.4 mg/min/kg and 77.5 mg/min/kg. For the same compound, the “CO2 Production (VCO2)” value [2] was 92.8 mL/min/kg and 70.8 mL/min/kg and 81.2 mL/min/kg and 81.9 mL/min/kg and 71.5 mL/min/kg and 71.3 mL/min/kg and 73.6 mL/min/kg and the “O2 Consumption (VO2)” value [2] was 108.3 ml/min/kg and 99.5 ml/min/kg and 86.9 ml/min/kg and 90.3 ml/min/kg (2×) and 96.4 ml/min/kg and 122.1 ml/min/kg.
